Values joined by “and” are separate entries in the source; they are usually repeats but may differ in a detail not shown here. Equal entries are not always repeated. ± gives the expanded uncertainty stated by the source.
Experiment: isobaric coefficient of expansion
Settings: Gas, Pressure calorimetry

N#N [nitrogen]
isobaric coefficient of expansion (302.9 K, 15 kPa): 0.004 ± 0.0001 1/K
isobaric coefficient of expansion (302.9 K, 30 kPa): 0.0036 ± 0.0001 1/K
isobaric coefficient of expansion (302.9 K, 39.9 kPa): 0.00322 ± 0.0001 1/K
isobaric coefficient of expansion (302.9 K, 60 kPa): 0.00262 ± 8e-05 1/K
isobaric coefficient of expansion (302.9 K, 70 kPa): 0.00243 ± 8e-05 1/K
isobaric coefficient of expansion (302.9 K, 80 kPa): 0.00224 ± 7e-05 1/K
isobaric coefficient of expansion (302.9 K, 89.9 kPa): 0.00209 ± 7e-05 1/K
isobaric coefficient of expansion (322.9 K, 13 kPa): 0.0036 ± 0.0001 1/K
isobaric coefficient of expansion (322.9 K, 14 kPa): 0.0036 ± 0.0001 1/K
isobaric coefficient of expansion (322.9 K, 15 kPa): 0.0036 ± 0.0001 1/K
isobaric coefficient of expansion (322.9 K, 16 kPa): 0.0036 ± 0.0001 1/K
isobaric coefficient of expansion (322.9 K, 18 kPa): 0.0036 ± 0.0001 1/K
isobaric coefficient of expansion (322.9 K, 20 kPa): 0.0036 ± 0.0001 1/K
isobaric coefficient of expansion (322.9 K, 30 kPa): 0.00333 ± 0.0001 1/K
isobaric coefficient of expansion (322.9 K, 40 kPa): 0.00303 ± 0.0001 1/K
isobaric coefficient of expansion (322.9 K, 60 kPa): 0.0025 1/K and 0.00251 1/K
isobaric coefficient of expansion (322.9 K, 80 kPa): 0.00212 ± 7e-05 1/K
isobaric coefficient of expansion (352.6 K, 14 kPa): 0.00309 ± 0.0001 1/K
isobaric coefficient of expansion (352.6 K, 30 kPa): 0.00297 1/K and 0.00299 1/K
isobaric coefficient of expansion (352.6 K, 40 kPa): 0.0026 ± 0.0001 1/K
isobaric coefficient of expansion (352.6 K, 50 kPa): 0.00252 ± 8e-05 1/K
isobaric coefficient of expansion (352.6 K, 60 kPa): 0.00232 ± 8e-05 1/K
isobaric coefficient of expansion (352.6 K, 70 kPa): 0.00217 ± 6.7e-05 1/K
isobaric coefficient of expansion (352.6 K, 80 kPa): 0.002 ± 7e-05 1/K
isobaric coefficient of expansion (352.6 K, 90 kPa): 0.00186 ± 6e-05 1/K
isobaric coefficient of expansion (422.2 K, 18 kPa): 0.00244 ± 8e-05 1/K
isobaric coefficient of expansion (422.2 K, 22 kPa): 0.00249 ± 8e-05 1/K
isobaric coefficient of expansion (422.2 K, 24 kPa): 0.00248 ± 8e-05 1/K
isobaric coefficient of expansion (422.2 K, 26 kPa): 0.00238 ± 8e-05 1/K
isobaric coefficient of expansion (422.2 K, 28 kPa): 0.00236 ± 8e-05 1/K
isobaric coefficient of expansion (422.2 K, 30 kPa): 0.00236 ± 8e-05 1/K
isobaric coefficient of expansion (422.2 K, 40 kPa): 0.00225 ± 6e-05 1/K
isobaric coefficient of expansion (422.2 K, 50 kPa): 0.00206 ± 6e-05 1/K
isobaric coefficient of expansion (422.2 K, 60 kPa): 0.00194 ± 5e-05 1/K
isobaric coefficient of expansion (422.2 K, 70 kPa): 0.00184 ± 6e-05 1/K
isobaric coefficient of expansion (422.2 K, 80 kPa): 0.00177 ± 6e-05 1/K
isobaric coefficient of expansion (422.2 K, 90 kPa): 0.00165 ± 6e-05 1/K

From the NIST ThermoML archive (doi:10.1016/j.tca.2004.09.020)
